From patent publication US8614333B2, “Acenaphtho heterocyclic compound and application thereof” (Dalian University of Technology, priority 2010, dated 2013) come the findings set out here.

Data set [1] has as its target GST-Bcl-2 protein (Homo sapiens, UniProt P10415). Kind of data set: Fluorescence polarization assay, competition with FAM-Bid peptide for Bcl-2. Conditions: GST-Bcl-2 40 nM, FAM-Bid 5 nM, 4 hours of incubation, read-out: Bcl-2 binding constants. As for the experimental part:
(§1) A Bid BH3 peptide (amino acids: 79-99: […]) having 21 amino acids was synthesized and marked with 6-carboxyfluorescein N-succinimidyl ester (FAM) as fluorescent tag (FAM-Bid) at the N-terminal. The reaction system used in the competitive binding experiment was GST-Bcl-2 protein (40 nM) or Mcl-1 protein, which was dissolved in the reaction buffer (100 mM K3PO4, pH 7.5; 100 μg/ml bovine γ albumin; 0.02% sodium azide) together with FAM-Bid polypeptide (5 nM). In a 96-well plate, 100 µL of the reaction system was added into each well. Then 1 μL different concentration of compound 13 mother solution to be detected dissolved in DMSO was added there into until the final concentration met the experimental design requirements. Meanwhile, two control groups were established, one with the reaction system only containing Bcl-2 or Mcl-1 and FAM-Bid (equivalent to 0% inhibition rate), the other with the reaction system only containing FAM-Bid peptide. After 4 hours of incubation, the 96-well plate was detected by enzyme-labelled meter. The fluorescent polarization value (mP) was tested at […]. Ki value was deduced according to calculation formula.
(§2) The BH3 analogous degrees of other 12 compounds were detected by using the experimental method as described above.
On the technique in general: Fluorescence polarisation rises when a labelled molecule tumbles more slowly, as on binding a larger partner.

Data set [2] has as its target Mcl-1 protein (Homo sapiens, UniProt Q07820). Nature of the data set: Fluorescence polarization assay, competition with FAM-Bid peptide for Mcl-1. Conditions: FAM-Bid 5 nM, 4 hours of incubation, read-out: Mcl-1 binding constants. As to the method:
as §1, §2

The target of data set [3] is T1, interaction between Bcl-2 and Bax (Homo sapiens, UniProt P10415).
T1 construct: expressed in transfected cells; host or cells: Hela cells
Nature of the data set: Intracellular FRET, Bcl-2-CFP/Bax-YFP in Hela cells. Conditions: for Time (time period after which the interaction between Bcl-2 and Bax was interfered): at the concentration given. The data set is classed as cell-based. In short, it runs like this: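 Hela cells transfected with Bcl-2-CFP and/or Bax-YFP plasmids, then treated with compound in DMSO at 2, 5, 10 and 15 μM for 24 h, or at 40 μM for 3, 6 and 24 h. FRET taken as the 527/475 nm emission ratio at 433 nm excitation, with singly transfected controls set to 1.0. Viability checked by MTT.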

Data set [4] deals with Bcl-2. Nature of the data set: Western blotting, semiquantitative analysis of Bcl-2 protein bands. The data set is classed as cell-based. Conditions: control = 1, tumor cells. As to the method: (§3) The interest protein was detected by the corresponding antibody. The expression of the interest protein in the cells was detected by horseradish peroxidase-labeled secondary antibodies in combination with ECL coloration method. […] The concentration of the protein bands in the Western images were carried out semiquantitative analysis and normalization treatment with KODAK Gel Logic 1500 imaging system software.

The subject of data set [5] is BAX shift towards the chondriosome. Nature of the data set: Co-localization between Bax protein and chondriosome, Bax-YFP in MCF-7 cells. Conditions: for Doses (concentration at which the compound drove the BAX to shift towards the chondriosome): Bax-YFP/Mito Tracker Red; for Time (time period after which BAX shifted towards the chondriosome): at the concentration given. The data set is classed as cell-based. In short, it runs like this:
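MCF-7 cells transfected with Bax-YFP plasmid; 24 h later treated with 10 μM compound for 6 h, then stained 10 min with 50 nM MitoTracker Red CMXRos. Dual-channel laser confocal imaging; Bax mitochondrial localization read as green/red overlap (orange).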

Data set [6] deals with Mcl-1. Kind of data set: Western blotting, semiquantitative analysis of Mcl-1 protein bands. Format: cell-based. Conditions: control = 1, tumor cells. As for the experimental part: as §3
On the technique in general: In western blotting, separated proteins are transferred to a membrane and probed.

For data set [7], the system named is MCF-7 cells. Nature of the data set: Cytotoxicity by MTT, cells without plasmid transfection. The data set is classed as cell-based. Conditions: Homo sapiens, MCF7; MCF-7, MTT, 48 hours; read-out: IC50 value in untransfected cells. In short, it runs like this: (§4)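 MCF-7 cells transfected with 3 μg BAX/BAK interfering plasmid by calcium phosphate, knockdown checked by Western; untransfected cells run in parallel. Cells treated with a compound concentration gradient for 48 hours; viability by MTT, IC50 derived.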

Data set [8] concerns MCF-7 cells transfected with BAX/BAK interfering plasmid. Nature of the data set: Cytotoxicity by MTT, cells transfected with BAX/BAK interfering plasmid. The data set is classed as cell-based. Conditions: Homo sapiens, MCF7; MCF-7 with BAX/BAK interfering plasmid, MTT, 48 hours. In short, it runs like this: as §4

T1 sequence (P10415 whole entry): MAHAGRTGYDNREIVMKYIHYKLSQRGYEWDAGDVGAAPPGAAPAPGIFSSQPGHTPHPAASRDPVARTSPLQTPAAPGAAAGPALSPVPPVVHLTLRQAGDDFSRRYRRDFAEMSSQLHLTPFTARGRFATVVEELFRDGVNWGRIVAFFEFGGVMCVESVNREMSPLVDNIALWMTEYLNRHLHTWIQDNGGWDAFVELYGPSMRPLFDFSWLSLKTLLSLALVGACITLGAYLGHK
GST-Bcl-2 protein, sequence (P10415 whole entry): as above
Mcl-1 protein, sequence (Q07820 whole entry, species assumed): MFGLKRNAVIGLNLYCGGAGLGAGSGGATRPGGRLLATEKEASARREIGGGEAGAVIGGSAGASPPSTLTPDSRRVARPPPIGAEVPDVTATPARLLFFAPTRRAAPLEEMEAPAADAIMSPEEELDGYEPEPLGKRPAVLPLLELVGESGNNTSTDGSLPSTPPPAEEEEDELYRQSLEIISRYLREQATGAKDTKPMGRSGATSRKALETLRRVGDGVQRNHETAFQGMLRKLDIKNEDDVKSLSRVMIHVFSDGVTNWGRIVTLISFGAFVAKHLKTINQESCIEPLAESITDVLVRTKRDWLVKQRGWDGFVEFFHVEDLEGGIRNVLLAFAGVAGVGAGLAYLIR

As a reminder, the melting point is the temperature of the solid-liquid transition. The term IC50 denotes the midpoint of a concentration-inhibition curve. `CCC(C)c1ccc(Oc2ccc3c4c(cccc24)C2=NC(=O)C(C#N)=C23)cc1` (stereo not shown) [Compound 13, 3-(4-sec-Butyl-phenoxy)-8-oxo-8H-acenaphtho[1,2-b]pyrrole-9-carbonitrile]: the melting point lay in the range of 278 to 279 °C. Further, the Ki in data set [1] is 158 nM. The Ki in data set [2] was determined as 24 nM. In addition, in [3], the “Doses (concentration at which the compound interfered with the interaction between Bcl-2 and Bax)” value turned out to be 0.5 µM; the “Time (time period after which the interaction between Bcl-2 and Bax was interfered)” value stood at 4 h. In data set [4] (6 h), the “concentration of the protein bands (semiquantitative, normalized), Bcl-2” value was found to be 0.99. In addition, the “concentration of the protein bands (semiquantitative, normalized), Bcl-2” value in data set [4] (12 h) stood at 0.99. The “concentration of the protein bands (semiquantitative, normalized), Bcl-2” value in [4] (18 h) is listed as 0.42. Further, the “concentration of the protein bands (semiquantitative, normalized), Bcl-2” value in [4] (24 h) is reported as 0.14. In addition, in [5], the “Doses (concentration at which the compound drove the BAX to shift towards the chondriosome)” value turned out to be 5.0 µM and the “Time (time period after which BAX shifted towards the chondriosome)” value amounted to 4 h. Also, the “concentration of the protein bands (semiquantitative, normalized), Mcl-1” value in [6] (2 h) was determined as 0.79. In addition, the “concentration of the protein bands (semiquantitative, normalized), Mcl-1” value in data set [6] (6 h) is on record as 0.29. Besides, the IC50 in data set [7] stood at 7500 nM. The IC50 in data set [8] is > 50000 nM.
Regarding `CC(C)Cc1ccc(Oc2ccc3c4c(cccc24)C2=NC(=O)C(C#N)=C23)cc1` [Compound 15, 3-(4-Isobutyl-phenoxy)-8-oxo-8H-acenaphtho[1,2-b]pyrrole-9-carbonitrile], the Ki in data set [1] was 140 nM; in [2], 12 nM. Moreover, the “Doses (concentration at which the compound interfered with the interaction between Bcl-2 and Bax)” value in [3] stood at 0.5 µM. For the same molecule, the “Time (time period after which the interaction between Bcl-2 and Bax was interfered)” value in data set [3] was found to be 4 h. Moreover, the “concentration of the protein bands (semiquantitative, normalized), Bcl-2” value in data set [4] (6 h) is listed as 0.99; in data set [4] (12 h) it was 0.99; in data set [4] (18 h) it was 0.39; in data set [4] (24 h) it was 0.12. Further, the “Doses (concentration at which the compound drove the BAX to shift towards the chondriosome)” value in [5] turned out to be 5.0 µM. Moreover, the “Time (time period after which BAX shifted towards the chondriosome)” value in data set [5] was 3 h. Besides, the “concentration of the protein bands (semiquantitative, normalized), Mcl-1” value was 0.69 in data set [6] (2 h) and 0.42 in [6] (6 h). Also, the figures for the half-maximal inhibitory concentration (IC50) in data set [7] and in data set [8] were 7100 nM and > 50000 nM, respectively.
As to `CC(C)Cc1ccc(Sc2ccc3c4c(cccc24)C2=NC(=O)C(C#N)=C23)cc1` [Compound 18, 3-(4-Isobutyl-phenylsulfanyl)-8-oxo-8H-acenaphtho[1,2-b]pyrrole-9-carbonitrile], the Ki was 120 nM in data set [1] and 8 nM in data set [2]. Moreover, the “Doses (concentration at which the compound interfered with the interaction between Bcl-2 and Bax)” value in data set [3] worked out at 0.5 µM. The “Time (time period after which the interaction between Bcl-2 and Bax was interfered)” value in data set [3] was 4 h. Moreover, the “concentration of the protein bands (semiquantitative, normalized), Bcl-2” value worked out at 0.99 in [4] (6 h), 0.99 in data set [4] (12 h), 0.36 in [4] (18 h) and 0.10 in data set [4] (24 h). Further, the “Doses (concentration at which the compound drove the BAX to shift towards the chondriosome)” value in data set [5] stood at 5.0 µM. Moreover, the “Time (time period after which BAX shifted towards the chondriosome)” value in [5] turned out to be 4 h. Besides, the “concentration of the protein bands (semiquantitative, normalized), Mcl-1” value in data set [6] (2 h) stood at 0.66; in [6] (6 h), 0.39. Further, the values for the concentration for half-maximal inhibition (IC50) in data set [7] and in data set [8] were 6800 nM and > 50000 nM, respectively.
